Converted amounts (≈) assume the structure as drawn. Where a SMILES comes first, the peptide text is derived from it. The star is where a group is joined. Lauroyl = CCCCCCCCCCCC(=O)*; Octanoyl = CCCCCCCC(=O)*
Assays:
[1] = system: E. coli (Ec, ATCC 25922); experiment: microbe, parasite or virus in culture; assay type: cell-based, Escherichia coli; conditions: for Antimicrobial Activity (MIC) Gram − Ec: ATCC 25922, 24 h
Protocol: (§1) All cyclic and linear peptides were screened for antibacterial activity against four Gram-positive strains: B. subtilis (Bs, ATCC 23857), C. glutamicum (Cg, ATCC 13032), S. aureus (Sa, ATCC 9144) and S. epidermidis RP62A (Se, ATCC 35984), and two Gram-negative strains: E. coli (Ec, ATCC 25922) and P. aeruginosa (Pa, ATCC 27853). The activity was assessed using a broth microdilution assay according to a modified CLSI-based method. Briefly, overnight bacterial cultures were grown in Mueller–Hinton (MH) broth medium (Difco Laboratories, Detroit, MI, USA) for 2 h at room temperature. The optical density (OD600) was measured, and the bacterial suspensions were adjusted to 2.5–3 × 10^4 CFU/mL in MH medium. The bacterial suspension (50 µL) was distributed in 96-well plates (Nunc, Roskilde, Denmark) preloaded with two-fold dilution series (256 to 1 µg/mL) of peptide solutions (50 µL), giving a final well volume of 100 µL. The microplates were incubated in an EnVision 2103 microplate reader (PerkinElmer, Llantrisant, UK) at 35 °C, with OD595 recorded every hour for 24 h. MIC was defined as the lowest concentration of peptides showing an optical density less than 10% of the negative (growth) control, consisting of bacterial suspension and water. Polymyxin B sulfate (Sigma-Aldrich, St. Louis, MO, USA) and chlorhexidine acetate (CHX, Fresenius Kabi, Halden, Norway), both with concentrations ranging from 12.5 to 0.09 μg/mL, served as positive (growth inhibition) controls. All peptides were tested in triplicate.

[2] = system: E. coli MC4100 (wild type, WT); experiment: microbe, parasite or virus in culture; conditions: Escherichia coli, read-out: MIC E. coli MC4100 (WT)
Protocol: as §1
MIC values were determined for all cyclic peptides against two E. coli strains: wild type (WT) MC4100 and the hyperpermeable variant NR698, having a deficient outer membrane. The NR698 strain, containing lptD4213/imp4213 mutation, was kindly provided by M. Grabowicz (Emory University School of Medicine, Rollins Research Center, Atlanta, GA, USA). The assay was performed in the same way as previously described for the antibacterial MIC assay.

[3] = system: Rhodotorula sp. (Rh); experiment: microbe, parasite or virus in culture; assay type: cell-based; conditions: 48 h
Protocol: (§2) The synthesized peptides were screened for antifungal activity against the molds A. pullulans (Ap) and Rhodotorula sp. (Rh) (both obtained from Professor Arne Tronsmo, The Norwegian University of Life Sciences, Ås, Norway) and the yeast C. albicans (Ca, ATCC 10231) as previously described. In short, fungal spores were grown in potato dextrose broth media (Difco) containing 2% D(+)-glucose (Merck, Darmstadt, Germany) at 25–30 °C while shaking at 200 rpm overnight. The cultures were diluted with a dextrose media containing glucose to a concentration of approx. 4 × 10^5 spores/mL. Aliquots of the cultures (50 µL) were transferred to 96 well microtiter plates preloaded with the synthetic peptides (50 µL) in two-fold serial dilutions (256 to 1 µg/mL). Polymyxin B and CHX (both with concentrations ranging from 12.5 to 0.09 μg/mL) served as positive antibiotic controls. The microtiter plates containing the fungal spores and the test peptides were incubated at room temperature for 48 h and OD600 was recorded using a Synergy H1 Hybrid microplate reader system (BioTek, Winooski, VT, USA). MIC was defined as the lowest peptide concentration showing an optical density less than 10% of the negative (growth) control. All experiments were performed in triplicate.

[4] = system: B. subtilis (Bs, ATCC 23857); experiment: microbe, parasite or virus in culture; assay type: cell-based, Bacillus subtilis; conditions: ATCC 23857, 24 h
Protocol: as §1

[5] = system: C. albicans (Ca, ATCC 10231); experiment: microbe, parasite or virus in culture; assay type: cell-based, Candida albicans; conditions: ATCC 10231, 48 h
Protocol: as §2

[6] = system: A. pullulans (Ap); experiment: microbe, parasite or virus in culture; assay type: cell-based, Aurobasidium pollulans; conditions: 48 h
Protocol: as §2

[7] = system: Gram-negative bacterial strains (E. coli and P. aeruginosa); experiment: Antibacterial MIC assay, Gram-negative strains together (range or geometric mean); assay type: cell-based; conditions: Table S3; MIC >256 set to 256
Protocol: as §1

[8] = system: C. glutamicum (Cg, ATCC 13032); experiment: microbe, parasite or virus in culture; assay type: cell-based, Corynebacterium glutamicum; conditions: ATCC 13032, 24 h
Protocol: as §1

[9] = system: all bacterial strains; experiment: Antibacterial MIC assay, all bacterial strains together (range or geometric mean); assay type: cell-based; conditions: for GM (geometric mean of the MIC values against all bacterial strains): Table 1, six bacterial strains; for GM of MIC Tot. bact.: Table S3, all bacterial test strains, MIC >256 set to 256
Protocol: The selectivity index (SI) of the peptides towards bacteria over eukaryotic cells was calculated using the geometric mean (GM) of the MIC values against all bacterial test strains, according to the method by Orlov et al.. The SI for each peptide was determined as the ratio of the RBC-EC50 value by the corresponding GM value. Larger SI values indicate greater selectivity for microbial cells. […] In general, the SI was higher against the Gram-positive bacteral strains than the Gram-negative strains. (Table S3). Overall, peptides displaying EC50 < 100 µg/mL were considered too haemolytic to be of interest for further exploration.
as §1

[10] = system: S. aureus (Sa, ATCC 9144); experiment: microbe, parasite or virus in culture; assay type: cell-based, Staphylococcus aureus; conditions: ATCC 9144, 24 h
Protocol: as §1

[11] = system: Gram-positive bacterial strains; conditions: for GM of MIC G+: Table S3, MIC >256 set to 256
Protocol: as §1

[12] = system: S. epidermidis RP62A (Se, ATCC 35984); experiment: microbe, parasite or virus in culture; assay type: cell-based, Staphylococcus epidermidis; conditions: ATCC 35984, 24 h
Protocol: as §1

[13] = system: human red blood cells (RBC); experiment: Haemolytic activity assay; assay type: cell-based; conditions: for Selectivity index (SI) G- / Selectivity index (SI) G+ / Selectivity index (SI) Fungi: Table S3, highest tested concentration used where EC50 above it; for Selectivity index (SI) G-: EC50/GM of Gram-negative strains; for Selectivity index (SI) G+: EC50/GM of Gram-positive strains; for Selectivity index (SI) Fungi: EC50/GM of fungi; for RBC Tox. (EC50), haemolytic activity: human RBC, 1 h, 37 °C, concentration giving 50% haemolysis; for SI (selectivity index = EC50/GM): haemolytic EC50 over GM of MIC against all bacterial strains, Table 1
Protocol: The synthetized lipopeptides were screened for haemolytic activity against human red blood cells (RBC), in concentrations ranging from 500 to 3.9 μM, following a previously described protocol. In brief, haemolysis was determined using a heparinizied (10 IU/mL) fraction of freshly drawn human blood. A second fraction of blood, which was collected in test tubes containing ethylenediaminetetraacetic acid (EDTA, Vacutest, KIMA, Arzergrande, Italy), was used for determination of the hematocrit (hct). Plasma was removed from heparinized blood by washing three times with prewarmed phosphate-buffered saline (PBS) before being adjusted to a hematocrit of 4%. Peptides dissolved in dimethyl sulfoxide (DMSO) were further diluted with PBS to a final DMSO content of ≤1%. Triton X-100 (Sigma-Aldrich, St. Louis, MO, USA), used at a final concentration of 0.1%, served as a positive control for 100% haemolysis, whereas 1% DMSO in PBS buffer served as a negative control where no toxicity was detected. Duplicates of test solutions and erythrocytes, with 1% hct final concentration, were prepared in a 96-well polypropylene V-bottom plate (Nunc, Fischer scientific, Oslo, Norway). They were incubated under agitation at 37 °C and 800 rpm for 1 h. After centrifugation (5 min, 3000× g), 100 µL from each well were transferred to a flat-bottomed 96-well plate and absorbance was measured at 545 nm with a microplate reader (SpectraMax 190, Molecular Devices, San Jose, CA, USA). After subtracting PBS background, the percentage of haemolysis was calculated as the ratio of the absorbance in the peptide-treated and surfactant-treated samples. Three independent experiments were performed, and EC50 (the concentration giving 50% haemolysis) values are presented as averages.

[14] = system: P. aeruginosa (Pa, ATCC 27853); experiment: microbe, parasite or virus in culture; assay type: cell-based, Pseudomonas aeruginosa; conditions: ATCC 27853, 24 h
Protocol: as §1

[15] = system: fungi (A. pullulans, C. albicans, Rhodotorula sp.); experiment: Antifungal MIC assay, all fungi together (range or geometric mean); assay type: cell-based; conditions: Table S3; MIC >128 set to 128
Protocol: as §2

Compound	Antimicrobial Activity (MIC) Gram − Ec [1] [mg/L]	Antimicrobial Activity (MIC) Fungi Rh [3] [mg/L]	Antimicrobial Activity (MIC) Gram + Bs [4] [mg/L]	Antimicrobial Activity (MIC) Fungi Ca [5] [mg/L]	Antimicrobial Activity (MIC) Fungi Ap [6] [mg/L]	GM of MIC G- [7] [mg/L]	Antimicrobial Activity (MIC) Gram + Cg [8] [mg/L]	GM (geometric mean of the MIC values against all bacterial strains) [9] [mg/L]	GM of MIC Tot. bact. [9] [mg/L]	Antimicrobial Activity (MIC) Gram + Sa [10] [mg/L]	GM of MIC G+ [11] [mg/L]	Antimicrobial Activity (MIC) Gram + Se [12] [mg/L]	Selectivity index (SI) G- [13]	Selectivity index (SI) G+ [13]	Selectivity index (SI) Fungi [13]	RBC Tox. (EC50), haemolytic activity [13] [mg/L]	Antimicrobial Activity (MIC) Gram − Pa [14] [mg/L]	GM of MIC Fungi [15] [mg/L]	SI (selectivity index = EC50/GM) [13]	also measured
CC1(C)S[C@@H]2[C@H](NC(=O)[C@H](N)c3ccccc3)C(=O)N2[C@H]1C(=O)O [Ampicillin, reference compound]	–	–	–	–	–	–	–	–	–	–	–	–	–	–	–	–	–	–	–	MIC ([1]; Escherichia coli, ATCC25922, Table 2, laboratory strain, read-out: MIC E. coli ATCC 25922 (from Table 1)): 8 mg/L (≈ 22.9 µM); MIC [2]: 8 mg/L (≈ 22.9 µM)
CCCCCCCCCCCC(=O)N[C@@H](CS)C(=O)NCC(=O)N[C@@H](CCCCN)C(=O)N[C@@H](CCCCN)C(=O)N1CCC[C@H]1C(=O)NCC(=O)NCC(=O)N[C@@H](Cc1c[nH]c2ccccc12)C(=O)N[C@@H](CCCCN)C(=O)N[C@@H](CS)C(=O)N[C@@H](CCCCN)C(=O)N[C@@H](CC(C)C)C(N)=O [Peptide C12-Turg-1, C12- CGKKPGGWKC KL-NH2] (Lauroyl-CGKKPGGWKCKL-NH2)	8	8	4	64	32	11	4	6	6	8	5	4	> 86	> 204	> 38	>971	16	25	–	–
CCCCCCCC(=O)N[C@@H](CS)C(=O)NCC(=O)N[C@@H](CCCCN)C(=O)N[C@@H](CCCCN)C(=O)N[C@@H](Cc1c[nH]c2ccccc12)C(=O)N[C@@H](Cc1c[nH]c2ccccc12)C(=O)NCC(=O)N[C@@H](Cc1c[nH]c2ccccc12)C(=O)N[C@@H](CCCCN)C(=O)N[C@@H](CS)C(=O)N[C@@H](CCCCN)C(=O)N[C@@H](CC(C)C)C(N)=O [Peptide C8-Turg-2, C8- CGKKWWGWKC KL-NH2] (Octanoyl-CGKKWWGWKCKL-NH2)	16	32	8	64	32	16	4	9	9	8	7	8	12	29	5	198	16	40	22	MIC against the Gram-positive bacterial strains ([11]; 2 h): 4 to 8 mg/L
CCCCCCCC(=O)N[C@@H](CS)C(=O)NCC(=O)N[C@@H](CCCCN)C(=O)N[C@@H](CCCCN)C(=O)N1CCC[C@H]1C(=O)NCC(=O)NCC(=O)N[C@@H](Cc1c[nH]c2ccccc12)C(=O)N[C@@H](CCCCN)C(=O)N[C@@H](CS)C(=O)N[C@@H](CCCCN)C(=O)N[C@@H](CC(C)C)C(N)=O [Peptide C8-Turg-1, C8- CGKKPGGWKC KL-NH2] (Octanoyl-CGKKPGGWKCKL-NH2)	32	16	8	128	32	64	4	29	29	128	19	32	> 15	> 50	> 23	>943	128	40	>33	–
